The MFC is the smallest concentration meeting the test's criterion for killing the fungus. As a reminder, the MIC is the least concentration at which growth counts as inhibited. The MBC is the lowest tested concentration that kills the bacteria rather than only halting them.

These results are taken from ChEMBL document CHEMBL4024712, “Synthesis, stability and mechanistic studies of potent anticryptococcal hexapeptides” (Eur J Med Chem, 2017).

Series [1] relates to Candida albicans. The experiment in a line: Antifungal activity against Candida albicans ATCC 90028 after 18 to 24 hrs by Alamar blue assay. The format is functional. (In general: The colour change of resazurin is a common sign of viable cells or microbes.)
The test system of series [2] is Pichia kudriavzevii. Briefly: Fungicidal activity against Candida krusei ATCC 6258 after 18 to 24 hrs by Alamar blue assay. In kind it is functional.
Series [3] deals with Cryptococcus neoformans. Briefly: Antifungal activity against Cryptococcus neoformans ATCC 90113 after 68 to 72 hrs by Alamar blue assay. The format is functional.
Series [4] concerns Staphylococcus aureus. The experiment in a line: Anti-bacterial activity against methicillin-resistant Staphylococcus aureus ATCC 33591 by CLSI method. In kind it is functional. The note with it: Staphylococcus aureus, ATCC 33591.
Series [5] concerns Escherichia coli. Briefly: Bactericidal activity against Escherichia coli ATCC 35218 by CLSI method. The format is functional.
Another series has as its system Pseudomonas aeruginosa. Briefly: Anti-bacterial activity against Pseudomonas aeruginosa ATCC 27853 by CLSI method. The format is functional.
In series [6] the test system is Escherichia coli. Briefly: Anti-bacterial activity against Escherichia coli ATCC 35218 by CLSI method. In kind it is functional. The note with it: for MIC: Escherichia coli, ATCC 35218.
The subject of series [7] is Mycobacterium intracellulare. The experiment in a line: Bactericidal activity against Mycobacterium intracellulare ATCC 23068 after 68 to 72 hrs by Alamar blue assay. The format is functional.
For series [8], the system named is Staphylococcus aureus. The experiment in a line: Bactericidal activity against Staphylococcus aureus ATCC 29213 by CLSI method. In kind it is functional.
Series [9] has as its system Staphylococcus aureus. Briefly: Anti-bacterial activity against Staphylococcus aureus ATCC 29213 by CLSI method. The note with it: Staphylococcus aureus, ATCC 29213. In kind it is functional.
A further series has as its system Aspergillus fumigatus. Briefly: Antifungal activity against Aspergillus fumigatus ATCC 90906 after 68 to 72 hrs by Alamar blue assay. In kind it is functional.
The next series deals with Vero. The experiment in a line: Cytotoxicity against African green monkey Vero cells up to 10 ug/ml after 48 hrs by neutral red dye based assay. The note with it: chlorocebus sabaeus. In kind it is cell-based.
The test system of series [10] is Pichia kudriavzevii. The experiment in a line: Antifungal activity against Candida krusei ATCC 6258 after 18 to 24 hrs by Alamar blue assay. In kind it is functional. The note with it: Pichia kudriavzevii, ATCC 6258.
Series [11] deals with Mycobacterium intracellulare. The experiment in a line: Anti-bacterial activity against Mycobacterium intracellulare ATCC 23068 after 68 to 72 hrs by Alamar blue assay. The format is functional, cell-based.
The test system of the next series is Nakaseomyces glabratus. The experiment in a line: Antifungal activity against Candida glabrata ATCC 90030 after 18 to 24 hrs by Alamar blue assay. The format is functional.
Series [12] relates to Staphylococcus aureus. The experiment in a line: Bactericidal activity against methicillin-resistant Staphylococcus aureus ATCC 33591 by CLSI method. In kind it is functional.
Series [13] deals with Candida albicans. Briefly: Fungicidal activity against Candida albicans ATCC 90028 after 18 to 24 hrs by Alamar blue assay. The format is functional.
Series [14] concerns Cryptococcus neoformans. Briefly: Fungicidal activity against Cryptococcus neoformans ATCC 90113 after 68 to 72 hrs by Alamar blue assay. The format is functional.

Molecules are shown by their SMILES. In brackets after ≈: the same amount, converted by molar mass. Non-standard residues stand in square brackets, D forms with d. Residues, ends and D or L forms follow the SMILES beside them. His(τ-Bzl) = N[C@@H](Cc1cn(Cc2ccccc2)cn1)C(=O)O; Phe(4-Me) = Cc1ccc(C[C@H](N)C(=O)O)cc1; 1Nal = N[C@@H](Cc1cccc2ccccc12)C(=O)O; Cha = N[C@@H](CC1CCCCC1)C(=O)O; Orn = NCCC[C@H](N)C(=O)O; Dab = NCC[C@H](N)C(=O)O

As for `Cc1ccc(C[C@H](NC(=O)[C@@H](Cc2ccccc2)NC(=O)[C@@H](Cc2c[nH]c3ccccc23)NC(=O)[C@@H](N)CCCCN)C(=O)N[C@H](Cc2ccccc2)C(=O)N[C@@H](Cc2cn(Cc3ccccc3)cn2)C(N)=O)cc1` (H-K[dW][dF][Phe(4-Me)][dF][His(τ-Bzl)]-NH2), the IC50 entry with Candida albicans [1], in the series on Pseudomonas aeruginosa, in the series on Aspergillus fumigatus and in the series with Nakaseomyces glabratus was “Not Active” throughout. The compound further returned an MFC with Pichia kudriavzevii [2] of 20 mg/L (≈ 19.7 µM). Also, the MIC in the series on Cryptococcus neoformans [3] is 2.5 mg/L (≈ 2.46 µM); against Staphylococcus aureus [4], 20 mg/L (≈ 19.7 µM); in the series on Escherichia coli [6] it was 20 mg/L (≈ 19.7 µM); with Staphylococcus aureus [9] it was 20 mg/L (≈ 19.7 µM); in the series with Pichia kudriavzevii [10], 20 mg/L (≈ 19.7 µM); in series [11] (Mycobacterium intracellulare, ATCC 23068), 20 mg/L (≈ 19.7 µM). For the same compound, the MBC (against Escherichia coli [5]; in series [7]; against Staphylococcus aureus [8]) was 20 mg/L (≈ 19.7 µM) in each case. Moreover, the Activity entry in the series on Vero is on record as “Non-Toxic”.

For `Cc1ccc(C[C@H](NC(=O)[C@@H](Cc2ccccc2)NC(=O)[C@@H](Cc2c[nH]c3ccccc23)NC(=O)[C@@H](N)CCCNC(=N)N)C(=O)N[C@H](Cc2ccccc2)C(=O)N[C@@H](Cc2cn(Cc3ccccc3)cn2)C(N)=O)cc1` (H-R[dW][dF][Phe(4-Me)][dF][His(τ-Bzl)]-NH2), the MIC with Candida albicans [1] (Candida albicans, ATCC 90028) was 20 mg/L (≈ 19.2 µM); against Cryptococcus neoformans [3] it was 2.5 mg/L (≈ 2.4 µM); in the series on Staphylococcus aureus [4], 20 mg/L (≈ 19.2 µM); against Escherichia coli [6], 10 mg/L (≈ 9.59 µM); against Pichia kudriavzevii [10] it was 20 mg/L (≈ 19.2 µM). Further, the MBC with Escherichia coli [5] stood at 20 mg/L (≈ 19.2 µM); against Staphylococcus aureus [12], 20 mg/L (≈ 19.2 µM); in series [7], 10 mg/L (≈ 9.59 µM); in the series with Staphylococcus aureus [8] it was 20 mg/L (≈ 19.2 µM). The IC50 result in the series with Pseudomonas aeruginosa, in the series on Aspergillus fumigatus and in the series on Nakaseomyces glabratus was “Not Active” in each case. The Activity result with Vero is “Non-Toxic”. The MFC turned out to be 20 mg/L (≈ 19.2 µM) in the series on Candida albicans [13] and 2.5 mg/L (≈ 2.4 µM) in the series with Cryptococcus neoformans [14].

As to `Cc1ccc(C[C@H](NC(=O)[C@@H](Cc2ccccc2)NC(=O)[C@@H](Cc2c[nH]c3ccccc23)NC(=O)[C@@H](N)CCN)C(=O)N[C@H](Cc2ccccc2)C(=O)N[C@@H](Cc2cn(Cc3ccccc3)cn2)C(N)=O)cc1` (H-[Dab][dW][dF][Phe(4-Me)][dF][His(τ-Bzl)]-NH2), the MBC against Staphylococcus aureus [12] and with Staphylococcus aureus [8] was 20 mg/L (≈ 20.3 µM) throughout. The compound also displayed an MIC with Staphylococcus aureus [9] of 20 mg/L (≈ 20.3 µM). The compound also came in with an MFC in the series on Cryptococcus neoformans [14] of 1.25 mg/L (≈ 1.27 µM).

For the compound `CC[C@H](C)[C@H](NC(=O)[C@H](CC1CCCCC1)NC(=O)[C@H](CC1CCCCC1)NC(=O)[C@@H](N)CCCN)C(=O)N[C@H](Cc1ccccc1)C(=O)N[C@@H](Cc1cn(Cc2ccccc2)cn1)C(N)=O` (H-[Orn][Cha][Cha]I[dF][His(τ-Bzl)]-NH2), the IC50 result (with Candida albicans [1]; in the series with Pseudomonas aeruginosa; in the series with Aspergillus fumigatus; in series [11]; in the series with Nakaseomyces glabratus) was “Not Active” throughout. Also, the MFC against Pichia kudriavzevii [2] was 20 mg/L (≈ 21.6 µM). Also, in the series on Escherichia coli [5], the MBC was 20 mg/L (≈ 21.6 µM). In addition, in the series on Escherichia coli [6], the MIC is 20 mg/L (≈ 21.6 µM). In addition, in the series on Vero, the Activity result is on record as “Non-Toxic”.

On to `CC[C@H](C)[C@H](NC(=O)[C@H](CC1CCCCC1)NC(=O)[C@@H](Cc1c[nH]c2ccccc12)NC(=O)[C@@H](N)CCCN)C(=O)N[C@@H](Cc1cccc2ccccc12)C(=O)N[C@@H](Cc1cn(Cc2ccccc2)cn1)C(N)=O` (H-[Orn][dW][Cha]I[1Nal][His(τ-Bzl)]-NH2), for which the IC50 result (in the series with Candida albicans [1]; in the series with Pseudomonas aeruginosa; in the series with Escherichia coli [6]; in the series with Aspergillus fumigatus; in [11]; in the series on Nakaseomyces glabratus) was “Not Active” each time. Also, the MIC against Cryptococcus neoformans [3] was found to be 1.25 mg/L (≈ 1.24 µM); with Staphylococcus aureus [9] it was 20 mg/L (≈ 19.8 µM); against Pichia kudriavzevii [10], 10 mg/L (≈ 9.92 µM). For the same compound, the figures for the MBC against Staphylococcus aureus [12] and against Staphylococcus aureus [8] were 10 mg/L (≈ 9.92 µM) and 20 mg/L (≈ 19.8 µM), respectively. For the same compound, in the series on Vero, the Activity result was “Non-Toxic”.
